In US12331040B2 (Karyopharm Therapeutics Inc., priority 2013, dated 2025):

Experiments:
[1] = test system: RWPE-1 cells; assay: MTT cell proliferation assay; assay type: cell-based; settings: Homo sapiens, 72-hour MTT
Description: (§1) The MTT cell proliferation assay was used to study the cytotoxic properties of the compounds. The assay was performed according to the method described by Roche Molecular Biochemicals, with minor modifications. The assay is based on the cleavage of the tetrazolium salt, MTT, in the presence of an electron-coupling reagent. The water-insoluble formazan salt produced must be solubilized in an additional step. Cells grown in a 96-well tissue culture plate were incubated with the MTT solution for approximately 4 hours. After this incubation period, a water-insoluble formazan dye formed. After solubilization, the formazan dye was quantitated using a scanning multi-well spectrophotometer (ELISA reader). […] The cells were seeded at 5,000-10,000 cells in each well of 96-well plate in 100 μL of fresh culture medium and were allowed to attach overnight. The stock solutions of the compounds were diluted in 100 μL cell culture medium to obtain eight concentrations of each test compound, ranging from 1 nM to 30 μM. […] All optical densities were measured at 490 nm using a Vmax Kinetic Microplate Reader (Molecular Devices). In most cases, the assay was performed in duplicate and the results were presented as a mean percent inhibition to the negative control±SE. The following formula was used to calculate the percent of inhibition: Inhibition (%)=(1−(ODo/OD))×100.
(§2) Compounds 504, 510, 525 and 585 were further tested against selected solid and hematological cancer cell lines and selected normal cell lines in a 72-hour MTT cell proliferation assay.

[2] = test system: SW-403 cells; assay: MTT cell proliferation assay; assay type: cell-based; settings: Homo sapiens, 72-hour MTT
Description: as §1, §2

[3] = test system: NCI-H520 cells; assay: MTT cell proliferation assay; assay type: cell-based; settings: Homo sapiens, 72-hour MTT
Description: as §1, §2

[4] = test system: PATU-8988T cells; assay: MTT cell proliferation assay; assay type: cell-based; settings: Homo sapiens, 72-hour MTT
Description: as §1, §2

[5] = test system: SW-948 cells; assay: MTT cell proliferation assay; assay type: cell-based; settings: Homo sapiens, SW948, 72-hour MTT
Description: as §1, §2

[6] = test system: Panc-1 cells; assay: MTT cell proliferation assay; assay type: cell-based; settings: Homo sapiens, 72-hour MTT
Description: as §1, §2

[7] = test system: NHEK cells; assay: MTT cell proliferation assay; assay type: cell-based; settings: 72-hour MTT
Description: as §1, §2

[8] = test system: MV-4-11 cells; assay: MTT cell proliferation assay; assay type: cell-based; settings: Homo sapiens, MV4-11, 72-hour MTT
Description: as §1, §2

[9] = test system: HT1080 cells; assay: MTT cell proliferation assay; assay type: cell-based; settings: Homo sapiens, HT-1080, 72-hour MTT
Description: as §1, §2

[10] = test system: MSTO-211H cells; assay: MTT cell proliferation assay; assay type: cell-based; settings: Homo sapiens, 72-hour MTT
Description: as §1, §2

[11] = test system: NCI-H28 cells; assay: MTT cell proliferation assay; assay type: cell-based; settings: Homo sapiens, 72-hour MTT
Description: as §1, §2

[12] = test system: MCF7 cells; assay: MTT cell proliferation assay; assay type: cell-based; settings: Homo sapiens, 72-hour MTT
Description: as §1, §2

[13] = test system: SW-1417 cells; assay: MTT cell proliferation assay; assay type: cell-based; settings: Homo sapiens, SW1417, 72-hour MTT
Description: as §1, §2

[14] = test system: ARPE-19 cells; assay: MTT cell proliferation assay; assay type: cell-based; settings: Homo sapiens, 72-hour MTT
Description: as §1, §2

[15] = test system: Hs578T cells; assay: MTT cell proliferation assay; assay type: cell-based; settings: Homo sapiens, Hs-578T, 72-hour MTT
Description: as §1, §2

[16] = test system: MCF-10A cells; assay: MTT cell proliferation assay; assay type: cell-based; settings: Homo sapiens, 72-hour MTT
Description: as §1, §2

[17] = test system: SW-620 cells; assay: MTT cell proliferation assay; assay type: cell-based; settings: Homo sapiens, 72-hour MTT
Description: as §1, §2

[18] = test system: Calu-3 cells; assay: MTT cell proliferation assay; assay type: cell-based; settings: Homo sapiens, 72-hour MTT
Description: as §1, §2

[19] = test system: SW-900 cells; assay: MTT cell proliferation assay; assay type: cell-based; settings: Homo sapiens, SW900, 72-hour MTT
Description: as §1, §2

[20] = test system: BT-549 cells; assay: MTT cell proliferation assay; assay type: cell-based; settings: Homo sapiens, 72-hour MTT
Description: as §1, §2

[21] = test system: Raji cells; assay: MTT cell proliferation assay; assay type: cell-based; settings: Homo sapiens, 72-hour MTT
Description: as §1, §2

[22] = test system: CAMA-1 cells; assay: MTT cell proliferation assay; assay type: cell-based; settings: Homo sapiens, 72-hour MTT
Description: as §1, §2

[23] = test system: NCI-H1563 cells; assay: MTT cell proliferation assay; assay type: cell-based; settings: Homo sapiens, 72-hour MTT
Description: as §1, §2

[24] = test system: HCT116 cells; assay: MTT cell proliferation assay; assay type: cell-based; settings: Homo sapiens, HCT-116, 72-hour MTT
Description: as §1, §2

[25] = test system: NCI-H747 cells; assay: MTT cell proliferation assay; assay type: cell-based; settings: Homo sapiens, 72-hour MTT
Description: as §1, §2

[26] = test system: LN18 cells; assay: MTT cell proliferation assay; assay type: cell-based; settings: Homo sapiens, LN-18, 72-hour MTT
Description: as §1, §2

[27] = test system: BT-20 cells; assay: MTT cell proliferation assay; assay type: cell-based; settings: Homo sapiens, 72-hour MTT
Description: as §1, §2

[28] = test system: U2OS cells; assay: Staining of β-catenin, cofilin and F-actin in fixed U2OS cells; assay type: cell-based, human; settings: 1 μM, 48 hours
Description: U2OS cells were grown on coverslips and treated with DMSO or 1 μM Compound 585 for 48 hours, at which time the cells were fixed and stained. The cells were labeled with phospho- or total β-catenin antibodies; phospho- or total cofilin antibodies; or ALEXA-FLUORO 488 phalloidin. Both phospho- and total β-catenin were reduced by treatment with Compound 585. Both phospho- and total cofilin were reduced by treatment with Compound 585. ALEXA-FLUORO 488 phalloidin was used to stain F-actin.

[29] = test system: U2OS cells; assay: Western blots of autophagy, stress and cell cycle markers in U2OS cells; assay type: cell-based, human; settings: 1 μM or 10 μM, 48 hours, Western blot
Description: U2OS cells were plated in a 6-well plate overnight. The next day, the cells were treated with 1 μM or 10 μM Compound 585 for 48 hours, then collected and lysed in RIPA buffer. The lysate was run on SDS-PAGE and Western blots of PAK4, PUMA, CHOP, p21, cyclin D, MLH1, p-AMPK, AMPK and LC3 were performed.

[30] = test system: U2OS cells; assay: BrdU incorporation and cell cycle analysis by flow cytometry in U2OS cells; assay type: cell-based, human; settings: 1 μM, BrdU/7-AAD flow cytometry
Description: U2OS cells were treated with DMSO or 1 μM Compound 585 for one, two or three days. At each time point, cells were treated with 10 μM BrdU for 2 hours, and then collected by trypsinization. Cells were subsequently washed, fixed and stained for BrdU and total DNA (7-AAD). BrdU incorporation and cell cycle analysis was performed using flow cytometry on a BD Fortessa Analyzer. Data was then analyzed using FCS Express 4 software.

Nc1ccc(/C=C/C(=O)NCc2cc3cc(-c4ccc(C(=O)N5CCC(F)(F)CC5)cn4)cc(C(F)(F)F)c3o2)cn1 [Compound 585, (E)-3-(6-aminopyridin-3-yl)-N-((5-(5-(4,4-difluoropiperidine-1-carbonyl)pyridin-2-yl)-7-(trifluoromethyl)benzofuran-2-yl)methyl)acrylamide]
IC50 [1]: 4 nM
IC50 [2]: 380 nM
IC50 [3]: 20 nM
IC50 [4]: 540 nM
IC50 [5]: 910 nM
IC50 [6]: 840 nM
IC50 [7]: 10400 nM
IC50 [8]: 90 nM
IC50 [9]: 210 nM
IC50 [10]: 250 nM
IC50 [11]: 200 nM
IC50 [12]: 700 nM
IC50 [13]: 1270 nM
IC50 [14]: 780 nM
IC50 [15]: 250 nM
IC50 [16]: 140 nM
IC50 [17]: 140 nM
IC50 [18]: 330 nM
IC50 [19]: > 10000 nM
IC50 [20]: 1530 nM
IC50 [21]: 90 nM
IC50 [22]: 1060 nM
IC50 [23]: 390 nM
IC50 [24]: 9820 nM
IC50 [25]: 590 nM
IC50 [26]: 1660 nM
IC50 [27]: 540 nM
stress fiber formation (F-actin, phalloidin) [28]: increase in stress fiber formation
phospho- and total cofilin ([28]; antibody staining): reduced
phospho- and total β-catenin ([28]; antibody staining): reduced
cell cycle proteins, p21 and cyclin D1 [29]: reduced
markers of stress response and autophagy (AMPK phosphorylation, short form of LC3 lysosome marker) [29]: induced markers of stress response and autophagy
cell cycle changes: Sub-G1 phase [30]: started to appear around 48-72 hours
cell cycle changes: S phase and G2 phase ([30]; at 48-72 hours): loss of S phase and increase in G2 phase
